Reference: ChEMBL document CHEMBL2311490 (Bioorg Med Chem Lett, 2013)

How the values were obtained:
[1] = biological target: Melatonin receptor type 1A (Homo sapiens, UniProt P48039); experiment: Displacement of [125I]2-iodomelatonin from human recombinant MT1 receptor expressed in HEK293 cells after 2 hrs by gamma counting; assay type: cell-based
[2] = organism: Xenopus laevis; experiment: Antimelanogenic activity in Xenopus laevis tadpoles assessed as melanophore aggregation by microscopy relative to melatonin; assay type: functional
[3] = biological target: T1, Melatonin receptor type 1B (Homo sapiens, UniProt P49286); experiment: Displacement of [125I]2-iodomelatonin from human recombinant MT2 receptor expressed in HEK293 cells after 2 hrs by gamma counting; assay type: cell-based
T1 sequence (P49286 whole entry): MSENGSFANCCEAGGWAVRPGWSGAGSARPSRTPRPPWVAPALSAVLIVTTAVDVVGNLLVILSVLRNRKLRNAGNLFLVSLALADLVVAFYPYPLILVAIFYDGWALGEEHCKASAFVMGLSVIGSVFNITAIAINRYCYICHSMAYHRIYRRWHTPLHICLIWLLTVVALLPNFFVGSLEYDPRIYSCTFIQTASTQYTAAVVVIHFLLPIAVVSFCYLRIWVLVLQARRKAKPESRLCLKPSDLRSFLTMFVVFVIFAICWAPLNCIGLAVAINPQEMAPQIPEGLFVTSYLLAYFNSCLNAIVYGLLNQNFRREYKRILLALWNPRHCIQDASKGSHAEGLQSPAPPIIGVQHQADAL

[4] = organism: Xenopus laevis; experiment: Antimelanogenic activity in Xenopus laevis tadpoles assessed as melanophore aggregation by microscopy; assay type: functional, organism-based
[5] = Displacement of [125I]2-iodomelatonin from melatonin receptor in chicken brain membranes after 60 mins by gamma counting; assay type: cell membranes, Gallus gallus, Membrane
[6] = organism: Xenopus laevis; experiment: Ratio of melatonin EC50 to compound EC50 for antimelanogenic activity in Xenopus laevis tadpoles assessed as melanophore aggregation by microscopy; assay type: functional

Sequence of Melatonin receptor type 1A (P48039 whole entry): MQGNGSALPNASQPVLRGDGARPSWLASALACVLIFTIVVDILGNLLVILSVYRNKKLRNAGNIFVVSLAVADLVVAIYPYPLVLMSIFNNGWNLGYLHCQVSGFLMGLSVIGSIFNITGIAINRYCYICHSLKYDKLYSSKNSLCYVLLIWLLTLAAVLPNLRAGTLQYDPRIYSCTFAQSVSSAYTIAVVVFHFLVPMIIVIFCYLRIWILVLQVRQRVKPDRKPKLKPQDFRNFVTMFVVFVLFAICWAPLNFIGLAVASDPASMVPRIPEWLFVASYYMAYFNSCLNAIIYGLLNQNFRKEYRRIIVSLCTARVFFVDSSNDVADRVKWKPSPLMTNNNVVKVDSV

Structure (SMILES) | Ki [1] | fold change (FC) [2] | Ki [3] | EC50 [4] | Ki [5] | Ratio EC50 [6]
CC(=O)N/C=C/c1cccc2ccccc12 | 6.7 nM | 0.0031 | 1.4 nM | 854 nM |  | 
COc1cccc(/C=C/NC(C)=O)c1 |  |  |  |  | 803 nM | 
CNC(=O)N/C=C/c1ccccc1OC | > 1000 nM |  | > 1000 nM |  |  | 
COc1ccc(OC)c(/C=C/NC(C)=O)c1 |  |  |  |  | 283 nM | 
CNC(=O)N/C=C/c1cc(OC)ccc1OC |  |  |  |  | > 1000 nM | 
CNC(=O)N/C=C/c1cccc2ccccc12 | 25 nM |  | 15 nM |  | 139 nM | 
COc1ccc2cccc(/C=C/NC(C)=O)c2c1 | 0.04 nM | 6.1 | 0.03 nM | 0.035 nM | 0.16 nM | 
CNC(=O)N/C=C/c1cccc2ccc(OC)cc12 |  |  |  |  | 0.44 nM | 
COc1ccc2ccccc2c1/C=C/NC(C)=O | 0.1 nM | 0.028 | 0.09 nM | 93.5 nM | 4.6 nM | 
CNC(=O)N/C=C/c1c(OC)ccc2ccccc12 | 3.1 nM |  | 6.5 nM |  | 36.6 nM | 
COc1ccc2ccc(OC)c(/C=C/NC(C)=O)c2c1 | 0.03 nM | 3473 | 0.07 nM | 0.00076 nM | 0.012 nM | 1000
CNC(=O)N/C=C/c1c(OC)ccc2ccc(OC)cc12 | 0.2 nM |  | 0.3 nM |  | 0.08 nM | 
COc1ccccc1/C=C/NC(C)=O |  |  |  |  | > 1000 nM | 
COc1ccc(OC)c([C@@H]2C[C@@H]2NC(C)=O)c1 (racemic) |  |  |  |  | > 1000 nM | 
CC(=O)N[C@@H]1C[C@H]1c1cccc2ccccc12 (racemic) | 19 nM |  | 6.8 nM | > 10000 nM | 128 nM | 
COc1ccc2cccc([C@@H]3C[C@H]3NC(C)=O)c2c1 (racemic) | 0.3 nM | 0.017 | 0.7 nM | 155 nM | 1.6 nM | 
COc1ccc2ccccc2c1[C@@H]1C[C@H]1NC(C)=O (racemic) | 3.7 nM | 0.025 | 2.6 nM | 101 nM | 15 nM | 
COc1ccc2ccc(OC)c([C@@H]3C[C@H]3NC(C)=O)c2c1 (racemic) | 0.06 nM | 264 | 0.2 nM | 0.01 nM | 0.46 nM | 
COc1cccc([C@@H]2C[C@H]2NC(C)=O)c1 (racemic) |  |  |  |  | 93 nM | 
COc1ccccc1[C@@H]1C[C@H]1NC(C)=O (racemic) |  |  |  |  | > 1000 nM | 
COc1ccc(OC)c([C@@H]2C[C@H]2NC(C)=O)c1 (racemic) | 87 nM |  | 86 nM |  | 130 nM | 
COc1ccc2cccc(CCNC(C)=O)c2c1 [AGOMELATINE] |  |  |  | 0.35 nM | 0.67 nM | 
COc1ccc2[nH]cc(CCNC(C)=O)c2c1 [MELATONIN] |  |  |  |  | 0.54 nM | 
